# Test results as given in patent US20250221930A1, “A COMPOSITION COMPRISING LIPID NANOPARTICLES AND AN ANTIFUNGAL POLYENE” (INSTITUT NATIONAL DE LA SANTÉ ET DE LA RECHERCHE MÉDICALE, priority 2022, published 2025).
# Tests used:
# L. ramosa = test: Checkerboard MICs of AmB, ISA and PEG15HS in solution; format: cell-based, Lichtheimia ramosa; settings: Lichtheimia ramosa, RPMI, 24 h at 37° C.
# Experimental: (§1) AmB minimum inhibitory concentrations (MIC) of each strain of Mucorales was measured in RPMI in the presence of different concentrations of ISA or PEG15HS as described by the EUCAST broth microdilution antifungal susceptibility test methodology with modification for the checkerboard procedure. Checkerboards were performed by adding 100 μL of two-fold dilutions of AmB (0.008 to 4 mg/L) and ISA (0.008 to 4 mg/L) or PEG15HS (0.04 to 2752 mg/L) in 96 well plates. One hundred microliters of a spore suspension at a concentration of 105 spores/mL were added to the wells, and the plates were incubated for 24 h at 37° C. […] Three experiments were performed for each strain.
# (§2) AmB MIC of each strain of Mucorales was measured in RPMI in the presence of different concentrations of ISA and a constant concentration of PEG15HS (100 times the concentration of AmB) as described by the EUCAST broth microdilution antifungal susceptibility test methodology with modification for the checkerboard procedure. Checkerboards were performed by adding 100 μL of two-fold dilutions of AmB (0.008 to 4 mg/L)+PEG15HS (0.8 to 400 mg/L) and ISA (0.008 to 4 mg/L) in 96 well plates. One hundred microliters of a spore suspension at a concentration of 105 spores/mL were added to the wells, and the plates were incubated for 24 h at 37° C. […] Three experiments were performed for each strain. […]
# L. corymbifera = test: as above; format: cell-based, Lichtheimia corymbifera; settings: Lichtheimia corymbifera, RPMI, 24 h at 37° C.
# Experimental: as §1, §2
# Rhizopus arrhizus 1 [1] = test: as above; format: cell-based; settings: Rhizopus arrhizus, 1, RPMI, 24 h at 37° C.
# Experimental: as §1, §2
# Aspergillus fumigatus = test: EUCAST MICs of AmB, ISA, AmB-loaded LNPs and AmB-ISA-loaded LNPs; format: cell-based; settings: 48 h at 37° C.
# Experimental: (§3) Briefly, a mass (80-120 mg) of an oil phase consisting of triglycerides (Labrafac®, or tributyrin in different mass ratios, i.e. 100% Labrafac® to 100% tributyrin) was supplemented with AmB (0,025 to 0.2 mg) and ISA (0.25 to 5 mg) and then mixed with 80 to 120 mg of PEG15HS (Solutol HS15®) and 500 to 800 μl of water to form an oil-in-water emulsion. This emulsion was then heated to 85° C., to obtain a water-in-oil emulsion, and then cooled to 40° C. Three such temperature cycles were performed and the system was then fast cooled to 4° C. The formulated nanoparticles were then characterized by size distribution and mean zeta potential measurements. Examples of formulations of LNPs loaded with AmB and AmB-ISA are detailed in Table 5:
# Two reference strains (ATCC 16424 and ATCC 204305) and a clinical azole-resistant strain (AfR2) of Aspergillus fumigatus were used.
# (§4) MICs of AmB in solution, ISA in solution, AmB-loaded LNPs, and AmB-ISA-loaded LNPs were evaluated according to the European Committee on Antimicrobial Susceptibility Testing (EUCAST) guidelines. Briefly, MICs were determined by adding 100 μL of two-fold dilutions of AmB in solution, ISA in solution, AmB-LNPs or AmB-ISA-LNPs (0.008 to 4 mg/L) in 96-well plates. One hundred microliters of a spore suspension at a concentration of 105 spores/mL were added to the wells, and the plates were incubated for 24 h (Mucorales) or 48 h (A. fumigatus) at 37° C. […] Three experiments were performed for each strain.
# Lichtheimia corymbifera = test: as above; format: cell-based; settings: Lichtheimia corymbifera; 24 h at 37° C.
# Experimental: as §3
# (§5) Rhizopus arrhizus 1, Lichtheimia corymbifera and Lichtheimia ramosa strains were used. These correspond to the most frequently encountered species in human mucormycosis. These three strains were isolated from patients suffering from pulmonary mucormycosis.
# as §4
# Lichtheimia ramosa = test: as above; format: cell-based; settings: Lichtheimia ramosa; 24 h at 37° C.
# Experimental: as §3, §5, §4
# Rhizopus arrhizus 1 [2] = test: as above; format: cell-based; settings: Rhizopus arrhizus, 1; 24 h at 37° C.
# Experimental: as §3, §5, §4
compound,measurement,setting,value
"C[C@@H](c1nc(-c2ccc(C#N)cc2)cs1)[C@](O)(Cn1cncn1)c1cc(F)ccc1F [ISA, isavuconazole]",MIC,L. ramosa,4 µg/mL
same,MIC,L. corymbifera,4 µg/mL
same,MIC,Rhizopus arrhizus 1 [1],1 µg/mL
same,MIC,"Aspergillus fumigatus; ATCC16424, Aspergillus fumigatus 16 (ATCC 16424)",0.5 µg/mL
same,MIC,"Aspergillus fumigatus; Aspergillus fumigatus, ATCC204305, A. fumigatus 20 (ATCC 204305)",0.5 µg/mL
same,MIC,"Aspergillus fumigatus; Aspergillus fumigatus, A. fumigatus R2 (clinical azole-resistant strain AfR2)",> 4 µg/mL
same,MIC,Lichtheimia corymbifera,4 µg/mL
same,MIC,Lichtheimia ramosa,4 µg/mL
same,MIC,Rhizopus arrhizus 1 [2],1 µg/mL
